The values below come from PMC8533253, “Bis-thiobarbiturates as Promising Xanthine Oxidase Inhibitors: Synthesis and Biological Evaluation” (Biomedicines, 2021).

The structures appear in SMILES notation.

The nature of series [1]: Antioxidant assay, DPPH method. As to conditions: 60 min. The procedure: (§1) XO inhibitory and antioxidant assays were performed in triplicate while antiproliferative assay was conducted in quadruplicate. For each assay, at least two independent experiments were performed. An initial screening at the concentration of 30 μM for all compounds under study was performed in each in vitro study. A second screening at 5 μM was performed for compounds that originated an inhibitory potential higher than 80% for the XO activity at 30 μM. Half-maximal inhibitory concentration (IC50) studies were performed for drugs used as a reference and for the most promising bis-thiobarbiturate in XO inhibitory, antioxidant, and cytotoxicity assays.
Antioxidant potential was spectrophotometrically evaluated by the 2,2-diphenyl-1-picrylhydrazyl (DPPH, Sigma-Aldrich, St. Louis, MO, USA) method. All solutions and dilutions were prepared in 99.5% ethanol before each experiment. For each assay, 100 μL of the test solution and 100 μL of DPPH solution (0.2 mM) were added to each well of a 96 wells Elisa microplate. […] After 60 min of incubation in dark at rt, the capacity of each compound to reduce DPPH was followed by measuring the absorbance at 517 nm. Ethanol was used as a negative control and Trolox as the positive control. To discount the absorbance of each compound at 517 nm, a blank was performed with 100 μL of each test compound and 100 μL of ethanol. The antioxidant capacity of each sample was calculated according to the following formula:% DPPH scavenging = [1 − (ABSsample − ABSblank of sample)/ABSnegative control] × 100
(§2) All in vitro results are expressed as mean values ± standard deviation (SD) of at least two independent determinations. The difference between groups was analyzed for each assay by Student’s t-test. The IC50 values were calculated by sigmoidal fitting analysis considering a 95% confidence interval.

In series [2] the target is T1, Xanthine oxidase (XO) (Bos taurus, UniProt P80457).
T1 construct: purchased Sigma-Aldrich X4875
T1 sequence (P80457 whole entry): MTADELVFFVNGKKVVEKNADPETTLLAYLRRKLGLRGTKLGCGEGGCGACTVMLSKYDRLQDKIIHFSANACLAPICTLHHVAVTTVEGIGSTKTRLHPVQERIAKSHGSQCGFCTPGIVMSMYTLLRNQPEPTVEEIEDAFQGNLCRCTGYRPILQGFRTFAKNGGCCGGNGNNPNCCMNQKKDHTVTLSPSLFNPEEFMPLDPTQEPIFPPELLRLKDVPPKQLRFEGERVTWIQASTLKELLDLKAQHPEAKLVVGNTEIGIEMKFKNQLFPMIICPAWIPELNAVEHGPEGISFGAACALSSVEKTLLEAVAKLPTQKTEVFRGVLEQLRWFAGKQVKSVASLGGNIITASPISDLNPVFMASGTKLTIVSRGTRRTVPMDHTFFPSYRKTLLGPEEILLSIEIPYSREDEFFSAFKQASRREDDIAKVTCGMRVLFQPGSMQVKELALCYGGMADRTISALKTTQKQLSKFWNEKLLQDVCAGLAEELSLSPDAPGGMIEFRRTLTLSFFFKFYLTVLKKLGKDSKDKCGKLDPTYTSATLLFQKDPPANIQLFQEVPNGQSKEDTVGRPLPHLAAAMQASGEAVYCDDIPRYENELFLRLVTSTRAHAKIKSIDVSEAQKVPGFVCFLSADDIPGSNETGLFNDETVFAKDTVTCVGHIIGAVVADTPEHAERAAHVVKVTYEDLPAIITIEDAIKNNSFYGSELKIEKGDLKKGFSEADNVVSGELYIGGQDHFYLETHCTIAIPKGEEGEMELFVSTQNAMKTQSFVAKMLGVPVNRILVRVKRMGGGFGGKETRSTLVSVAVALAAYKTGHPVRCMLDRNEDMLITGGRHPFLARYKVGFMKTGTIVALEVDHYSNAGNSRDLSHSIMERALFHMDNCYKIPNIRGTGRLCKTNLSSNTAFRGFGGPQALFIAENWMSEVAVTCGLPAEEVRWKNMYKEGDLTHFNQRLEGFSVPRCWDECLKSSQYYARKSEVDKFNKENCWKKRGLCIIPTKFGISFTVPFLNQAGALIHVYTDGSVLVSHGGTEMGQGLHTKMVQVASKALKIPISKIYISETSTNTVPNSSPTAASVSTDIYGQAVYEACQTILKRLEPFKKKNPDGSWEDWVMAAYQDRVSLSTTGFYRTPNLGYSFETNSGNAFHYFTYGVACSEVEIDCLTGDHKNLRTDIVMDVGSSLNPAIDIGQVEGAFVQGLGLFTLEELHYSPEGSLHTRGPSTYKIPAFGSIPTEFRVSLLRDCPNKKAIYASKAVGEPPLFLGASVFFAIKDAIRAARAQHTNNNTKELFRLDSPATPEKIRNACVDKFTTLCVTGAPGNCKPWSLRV
Nature of the series: XO inhibitory assay (spectrophotometric quantification of uric acid formation at 295 nm). The class given is biochemical. As to conditions: read-out: XO inhibition (%). As to the method: XO inhibitory and antioxidant assays were performed in triplicate while antiproliferative assay was conducted in quadruplicate. For each assay, at least two independent experiments were performed. An initial screening at the concentration of 30 μM for all compounds under study was performed in each in vitro study. […] Half-maximal inhibitory concentration (IC50) studies were performed for drugs used as a reference and for the most promising bis-thiobarbiturate in XO inhibitory, antioxidant, and cytotoxicity assays.
The XO inhibitory activity was evaluated by spectrophotometric quantification of uric acid formation. The 50 mM dihydrogen phosphate buffer (pH 7.4) was used to dilute all solutions. For each assay performed, 50 μL of the test solution and 50 μL of the 0.1 U/mL XO (Sigma-Aldrich X4875, St. Louis, MO, USA) solution were added in each well of an Elisa microplate (96 wells) followed by 5 min of incubation at 37 °C. […] The reaction started with the addition of 150 μL of a xanthine solution (420 μM). The absorbance was recorded at a wavelength of 295 nm every minute for 10 min. To obtain only the absorbance associated with uric acid, a solution consisting of 50 μL of the test solution, 150 μL of the xanthine solution, and 50 μL of buffer were used as blank. […] For each compound, the percentage of enzyme inhibition was calculated according to the following formula:% of XO inhibition = [1 − (ABSsample − ABSblank of sample)/ABSnegative control] × 100
as §2

The nature of series [3]: Cytotoxicity/antiproliferative assay (MTT) on MCF-7. The class given is cell-based. As to conditions: human, MCF-7 cells (breast adenocarcinoma), read-out: Cytotoxicity (% cell viability at 30 µM) MCF-7. The procedure:
as §1
(§3) The cytotoxic potential of the compounds being studied was evaluated by quantifying the extent of the reduction of 3-(4,5-dimethylthiazol-2-yl)-2,5-diphenyltetrazolium bromide (MTT, VWR, Radnor, PA, USA) on tumor cell lines of the colon (Caco-2) and breast (MCF-7) adenocarcinoma and non-tumor human dermal fibroblasts (NHDF). All cell lines were obtained from the American Type Culture Collection (ATCC, Manassas, VA, USA) and were maintained in 75 cm^2 culture flasks in a humidified air incubator with 5% CO2 at 37 °C. NHDF cells have grown in RPMI 1640 medium (Sigma-Aldrich, St. Louis, MO, USA) supplemented with 10% fetal bovine serum (FBS), 10 mM 4-(2-hydroxyethyl)-1-piperazineethanesulfonic acid (HEPES), 2 mM L-glutamine, 1 mM sodium pyruvate, and 1% antibiotic/antimycotic (Ab: 10,000 units/mL penicillin G, […] streptomycin and 25 μg/mL amphotericin B). MCF-7 cells were cultured in high-glucose Dulbecco’s modified Eagle medium (DMEM, Sigma-Aldrich, St. Louis, MO, USA) supplemented with 10% FBS, and 1% Ab. The Caco-2 cell line was cultured in a high glucose DMEM supplemented with 20% FBS and 1% of the antibiotic mixture (Sp: 10,000 units/mL penicillin G and […] of streptomycin). For the assay, cells were seeded in 96-well plates (2 × 10^4 cells/mL) in the culture medium. After 48 h of adherence, cells were treated with the test solutions and incubated for 72 h. […] Untreated cells were used as a negative control and 5-FU as the positive control. Following incubation, the medium was removed and replaced with a fresh incomplete culture medium (without FBS and Ab or Sp) and MTT solution [5 mg/mL in phosphate buffer saline (PBS)]. After further incubation for 4 h at 37 °C, the medium with MTT was removed, formazan crystals were dissolved in DMSO, and the absorbance was read at 570 nm. Results were expressed as the relative cell proliferation in comparison with the negative control cells.
as §2

Series [4] is described as follows: Cytotoxicity/antiproliferative assay (MTT) on Caco-2. The series is classed as cell-based. The settings on record: human, read-out: Cytotoxicity (% cell viability at 30 µM) Caco-2. As to the method:
as §1, §3, §2

A short description of series [5]: Cytotoxicity assay (MTT) on NHDF. The class given is cell-based, human. As to conditions: human, NHDF cells (non-tumor human dermal fibroblasts), 30 µM, 72 h, MTT; read-out: Cytotoxicity (% cell viability at 30 µM) NHDF. The procedure:
as §1, §3, §2

On to `O=c1[nH]c(O)c(C(c2ccc([N+](=O)[O-])cc2)c2c(O)[nH]c(=O)[nH]c2=O)c(=O)[nH]1`, for which the melting point is 227 °C (dec.).
For `Oc1ncnc2[nH]ncc12` [Allo, allopurinol, reference compound], in series [1], the “DPPH (% scavenging at 30 µM)” value came out at 0.48 ± 0.21%. Further, in series [2], the inhibition at 5 µM was 26.9 ± 0.82% and the inhibition at 30 µM stood at 88.5%.
As for `CCn1c(O)c(C(c2ccccc2)c2c(O)n(CC)c(=S)n(CC)c2=O)c(=O)n(CC)c1=S` [Compound 3, 5,5′-(Phenylmethylene)bis(1,3-diethyl-6-hydroxy-2-thioxo-2,3-dihydropyrimidin-4(1H)-one)], the melting point fell in the range of 177 to 179 °C. The viability at 72 h, 30 µM in series [3] was 90 ± 5.33%. Also, the viability at 72 h, 30 µM in series [4] came to 91.2 ± 9.87%. In series [1], the “DPPH (% scavenging at 30 µM)” value stood at 34.58 ± 0.96%. In series [2], the inhibition at 5 µM came out at 10.4% and the inhibition at 30 µM is 80.2%. Also, the viability at 72 h, 30 µM in series [5] is 88.7 ± 1.4%.
`CCn1c(O)c(C(c2ccc(C)cc2)c2c(O)n(CC)c(=S)n(CC)c2=O)c(=O)n(CC)c1=S` [Compound 4, 5,5′-(p-Tolymethylene)bis(1,3-diethyl-6-hydroxy-2-thioxo-2,3-dihydropyrimidin-4(1H)-one)] showed a melting point of 163 to 164 °C. Besides, the viability at 72 h, 30 µM in series [3] came to 90.6 ± 3.92%. Also, in series [4], the viability at 72 h, 30 µM stood at 98.6 ± 5.7%. Besides, the “DPPH (% scavenging at 30 µM)” value in series [1] was found to be 42.64 ± 0.81%. Moreover, in series [2], the inhibition at 30 µM was found to be 36.5%. The viability at 72 h, 30 µM in series [5] came out at 95.6 ± 7.26%.
Compound `CCn1c(O)c(C(c2ccc(C#N)cc2)c2c(O)n(CC)c(=S)n(CC)c2=O)c(=O)n(CC)c1=S` [Compound 5, 4-(Bis(1,3-diethyl-6-hydroxy-4-oxo-2-thioxo-1,2,3,4-tetrtahydropyrimidin-5-yl)methyl)benzonitrile] registered a melting point of 199 to 200 °C. Further, the viability at 72 h, 30 µM in series [3] came to 90.7 ± 4.06%. Moreover, in series [4], the viability at 72 h, 30 µM is 62.5 ± 11.9%. Also, in series [1], the “DPPH (% scavenging at 30 µM)” value is 34.76 ± 1.42%. Also, in series [2], the inhibition at 5 µM stood at 52.9% and the inhibition at 30 µM worked out at 86.1%. For the same compound, the viability at 72 h, 30 µM in series [5] was 86.5 ± 5.92%.
Consider `O=c1[nH]cc(F)c(=O)[nH]1` [Compound 5-FU, 5-fluorouracil, reference compound], for which the viability at 72 h, 30 µM came out at 45.9 ± 4.72% in series [3], 37.1 ± 1.51% in series [4] and 20.9 ± 0.83% in series [5].
`CCn1c(O)c(C(c2ccc([N+](=O)[O-])cc2)c2c(O)n(CC)c(=S)n(CC)c2=O)c(=O)n(CC)c1=S` [Compound 6, 5,5′-((4-Nitrophenyl)methylene)bis(1,3-diethyl-6-hydroxy-2-thioxo-2,3-dihydropirimidin-4(1H)-one)] gave a melting point of 202 to 204 °C. Moreover, the viability at 72 h, 30 µM in series [3] was 91.7 ± 1.48%. For the same compound, the viability at 72 h, 30 µM in series [4] worked out at 100 ± 4.45%. In addition, the “DPPH (% scavenging at 30 µM)” value in series [1] was 34.99 ± 1.32%. Moreover, in series [2], the inhibition at 5 µM came out at 56.8% and the inhibition at 30 µM worked out at 92.2%. Further, the viability at 72 h, 30 µM in series [5] worked out at 99.8 ± 5.43%.
Consider `O=c1[nH]c(=S)[nH]c(O)c1C(c1ccc([N+](=O)[O-])cc1)c1c(O)[nH]c(=S)[nH]c1=O` [Compound 7, 5,5′-((4-Nitrophenyl)methylene)bis(6-hydroxy-2-thioxo-2,3-dihydropyrimidin-4(1H)-one)], for which the melting point is 225 °C (dec.). Moreover, the viability at 72 h, 30 µM in series [3] was 98.7 ± 4.83%. Moreover, in series [4], the viability at 72 h, 30 µM came to 97.1 ± 3.63%. The “DPPH (% scavenging at 30 µM)” value in series [1] turned out to be 32.41 ± 0.26%. Besides, in series [2], the inhibition at 30 µM came out at 20.9%. In addition, in series [5], the viability at 72 h, 30 µM is 96.6 ± 4.32%.
Consider `CCn1c(O)c(C(c2ccc(NC(C)=O)cc2)c2c(O)n(CC)c(=S)n(CC)c2=O)c(=O)n(CC)c1=S` [Compound 9, N-(4-(Bis(1,3-diethyl-6-hydroxy-4-oxo-2-thioxo-1,2,3,4-tetrahydropyrimidin-5-yl)methyl)phenyl)acetamide], for which the melting point was 178 to 179 °C. The viability at 72 h, 30 µM in series [3] was 90.2 ± 5.7%. The viability at 72 h, 30 µM in series [4] came to 67.5 ± 9.4%. The “DPPH (% scavenging at 30 µM)” value in series [1] is on record as 39.63 ± 2.26%. For the same compound, in series [2], the inhibition at 30 µM turned out to be 45.6%. In addition, the viability at 72 h, 30 µM in series [5] is 81.3 ± 8.87%.
Take `CCn1c(O)c(C(c2ccc(OC)cc2)c2c(O)n(CC)c(=S)n(CC)c2=O)c(=O)n(CC)c1=S` [Compound 10, 5,5′-((4-Methoxyphenyl)methylene)bis(1,3-diethyl-6-hydroxy-2-thioxo-2,3-dihydropyrimidin-4(1H)-one)]: the melting point lay within 139 to 140 °C. In series [3], the viability at 72 h, 30 µM amounted to 100 ± 13%. In addition, the viability at 72 h, 30 µM in series [4] stood at 62.6 ± 7.74%. Besides, the “DPPH (% scavenging at 30 µM)” value in series [1] is 38.12 ± 1.56%. Moreover, the inhibition at 30 µM in series [2] was found to be 23.5%.
On to `CCn1c(O)c(C(c2cccc(O)c2)c2c(O)n(CC)c(=S)n(CC)c2=O)c(=O)n(CC)c1=S` [Compound 12, 5,5′-((3-Hydroxyphenyl)methylene)bis(1,3-diethyl-6-hydroxy-2-thioxo-2,3-dihydropyrimidin-4(1H)-one)], for which the melting point lay within 191 to 193 °C. The viability at 72 h, 30 µM in series [3] was found to be 91.7 ± 4.91%. Moreover, the viability at 72 h, 30 µM in series [4] worked out at 90.9 ± 3.84%. In addition, in series [1], the “DPPH (% scavenging at 30 µM)” value stood at 42.92 ± 0.61%. Moreover, the inhibition at 30 µM in series [2] worked out at 72.2%. In addition, the viability at 72 h, 30 µM in series [5] worked out at 85.6 ± 7.17%.
`CCn1c(O)c(C(c2ccccc2[N+](=O)[O-])c2c(O)n(CC)c(=S)n(CC)c2=O)c(=O)n(CC)c1=S` [Compound 13, 5,5′-((2-Nitrophenyl)methylene)bis(1,3-diethyl-6-hydroxy-2-thioxo-2,3-dihydropyrimidin-4(1H)-one)] registered a melting point of 172 to 173 °C. The viability at 72 h, 30 µM in series [3] was 98.2 ± 3.25%. Moreover, in series [4], the viability at 72 h, 30 µM was 95.4 ± 4.17%. For the same compound, the “DPPH (% scavenging at 30 µM)” value in series [1] is 29.90 ± 0.50%. For the same compound, in series [2], the inhibition at 5 µM came to 37.4% and the inhibition at 30 µM is 89.7%. For the same compound, the viability at 72 h, 30 µM in series [5] stood at 75.8 ± 2.41%.
Take `Cc1nc(-c2ccc(OCC(C)C)c(C#N)c2)sc1C(=O)O` [Febuxostat, febuxostat, reference compound]: in series [2], the inhibition at 5 µM turned out to be 93.9 ± 2.84% and the inhibition at 30 µM is 95%.
In the case of `Cc1c(C)c2c(c(C)c1O)CCC(C)(C(=O)O)O2` (centres unmarked) [Trolox, reference compound], the “DPPH (% scavenging at 30 µM)” value in series [1] worked out at 54.86 ± 0.98%. For the same compound, the 50% inhibitory concentration (IC50) in series [1] (read-out: DPPH Scavenging IC50) came out at 23.8 ± 2.13 µM.
